What follows are compounds tested against EGFR (human) (UniProt P00533) (assay: Assessment of EGFR Kinase Activity).
Chain of EGFR (human) (P00533 whole entry, looked up): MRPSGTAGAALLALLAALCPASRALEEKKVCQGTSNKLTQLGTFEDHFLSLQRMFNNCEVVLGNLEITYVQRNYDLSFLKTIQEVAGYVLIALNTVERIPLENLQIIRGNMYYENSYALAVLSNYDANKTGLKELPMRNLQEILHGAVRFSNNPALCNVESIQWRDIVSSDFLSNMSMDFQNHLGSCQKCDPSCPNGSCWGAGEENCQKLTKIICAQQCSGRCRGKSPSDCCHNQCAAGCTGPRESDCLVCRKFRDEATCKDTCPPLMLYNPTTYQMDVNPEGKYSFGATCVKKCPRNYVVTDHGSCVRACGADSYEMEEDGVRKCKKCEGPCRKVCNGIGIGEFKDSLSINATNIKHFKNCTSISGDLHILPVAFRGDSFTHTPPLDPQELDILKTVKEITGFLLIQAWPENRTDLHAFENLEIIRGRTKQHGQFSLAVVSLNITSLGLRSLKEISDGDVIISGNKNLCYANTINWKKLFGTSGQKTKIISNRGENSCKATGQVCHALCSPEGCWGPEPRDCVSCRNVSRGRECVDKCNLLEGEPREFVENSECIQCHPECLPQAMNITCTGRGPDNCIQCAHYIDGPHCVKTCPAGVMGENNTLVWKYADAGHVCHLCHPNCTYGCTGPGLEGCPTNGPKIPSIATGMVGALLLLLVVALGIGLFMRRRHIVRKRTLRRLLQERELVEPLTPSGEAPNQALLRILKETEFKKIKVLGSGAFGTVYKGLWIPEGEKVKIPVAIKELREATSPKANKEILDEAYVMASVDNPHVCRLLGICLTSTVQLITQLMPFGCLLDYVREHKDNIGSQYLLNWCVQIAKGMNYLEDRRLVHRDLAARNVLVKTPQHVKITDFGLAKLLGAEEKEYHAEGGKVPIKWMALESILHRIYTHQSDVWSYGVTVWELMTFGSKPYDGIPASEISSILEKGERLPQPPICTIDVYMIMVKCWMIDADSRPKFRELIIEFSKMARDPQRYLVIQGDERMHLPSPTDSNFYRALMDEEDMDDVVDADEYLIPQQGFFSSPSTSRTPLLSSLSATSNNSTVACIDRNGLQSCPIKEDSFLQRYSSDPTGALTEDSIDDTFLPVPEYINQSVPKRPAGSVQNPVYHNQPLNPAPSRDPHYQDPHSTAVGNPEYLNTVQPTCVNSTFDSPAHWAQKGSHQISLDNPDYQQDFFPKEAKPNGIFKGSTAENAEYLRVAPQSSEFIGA

SMILES	IC50
CP(C)(=O)CNCc1ccc(-c2ccc3ncnc(Nc4ccc(OCc5cccc(F)c5)c(Cl)c4)c3c2)o1	< 100 nM
CP1(=O)CCN(CC#Cc2ccc3ncnc(Nc4ccc5c(cnn5Cc5cccc(F)c5)c4)c3c2)CC1	< 100 nM
CP1(=O)CCN(C/C=C/c2ccc3ncnc(Nc4ccc(OCc5cccc(F)c5)c(Cl)c4)c3c2)CC1	< 100 nM
CP1(=O)CCN(Cc2ccc(-c3ccc4ncnc(Nc5ccc(OCc6cccc(F)c6)c(Br)c5)c4c3)o2)CC1	< 100 nM
CP1(=O)CCN(Cc2ccc(-c3ccc4ncnc(Nc5ccc6c(cnn6Cc6cccc(F)c6)c5)c4c3)o2)CC1	< 100 nM
CP(C)(=O)CCN(CCO)Cc1ccc(-c2ccc3ncnc(Nc4ccc5c(cnn5Cc5cccc(F)c5)c4)c3c2)o1	< 100 nM
CP1(=O)CCN(Cc2ccc(-c3ccc4ncnc(Nc5ccc(OCc6ccccn6)c(Cl)c5)c4c3)o2)CC1	< 100 nM
CP1(=O)CCN(Cc2ccc(-c3ccc4ncnc(Nc5ccc(OCc6cccc[n+]6[O-])c(Cl)c5)c4c3)o2)CC1	< 100 nM
CP1(=O)CCN(Cc2ccc(-c3ccc4ncnc(Nc5ccc(OCc6cnccn6)c(Cl)c5)c4c3)o2)CC1	< 100 nM
CP1(=O)CCN(Cc2ccc(-c3ccc4ncnc(Nc5ccc(OCc6cccc(F)c6)c(Cl)c5)c4c3)o2)CC1	< 100 nM
Cc1cccc(COc2ccc(Nc3ncnc4ccc(-c5ccc(CN6CCP(C)(=O)CC6)o5)cc34)cc2Cl)n1	100 to 1000 nM
CP(C)(=O)CCNCC#Cc1ccc2ncnc(Nc3ccc(OCc4cccc(F)c4)c(Cl)c3)c2c1	< 100 nM
COP(=O)(CCNCc1ccc(-c2ccc3ncnc(Nc4ccc(OCc5cccc(F)c5)c(Cl)c4)c3c2)o1)OC	< 100 nM
CCN(CCP(C)(C)=O)Cc1ccc(-c2ccc3ncnc(Nc4ccc5c(cnn5Cc5cccc(F)c5)c4)c3c2)o1	< 100 nM
Cc1cccc(COc2ccc(Nc3ncnc4ccc(-c5ccc(CN6CCP(C)(=O)CC6)o5)cc34)cc2Cl)[n+]1[O-]	< 100 nM
CP1(=O)CCN(Cc2ccc(-c3ccc4ncnc(Nc5cccc(Cl)c5F)c4c3)o2)CC1	< 100 nM
CP1(=O)CCN(CCCc2ccc3ncnc(Nc4ccc(OCc5cccc(F)c5)c(Cl)c4)c3c2)CC1	< 100 nM
Cc1ccc(Oc2ccc(Nc3ncnc4ccc(-c5ccc(CN6CCP(C)(=O)CC6)o5)cc34)cc2C)cn1	< 100 nM
CP1(=O)CCN(Cc2ccc(-c3ccc4ncnc(Nc5ccc(Br)c(Cl)c5F)c4c3)o2)CC1	< 100 nM
CP(C)(=O)CN1CCN(Cc2ccc(-c3ccc4ncnc(Nc5ccc(OCc6cccc(F)c6)c(Cl)c5)c4c3)o2)CC1	< 100 nM
CP(C)(=O)CCNCc1ccc(-c2ccc3ncnc(Nc4ccc5c(cnn5Cc5cccc(F)c5)c4)c3c2)o1	< 100 nM
CC1(C)COP(=O)(CCNCc2ccc(-c3ccc4ncnc(Nc5ccc(OCc6cccc(F)c6)c(Cl)c5)c4c3)o2)OC1	< 100 nM
C[C@@H](Nc1ncnc2ccc(-c3ccc(CN4CCP(C)(=O)CC4)o3)cc12)c1ccccc1	< 100 nM
C#Cc1cc(Nc2ncnc3ccc(-c4ccc(CN5CCP(C)(=O)CC5)o4)cc23)ccc1OCc1cccc(F)c1	< 100 nM
CCOP1(=O)CCN(Cc2ccc(-c3ccc4ncnc(Nc5ccc(OCc6cccc(F)c6)c(Cl)c5)c4c3)o2)CC1	< 100 nM
CP1(=O)CCN(Cc2ccc(-c3ccc4ncnc(Nc5ccc(Br)cc5F)c4c3)o2)CC1	100 to 1000 nM
CP1(=O)CCN(CC#Cc2ccc3ncnc(Nc4ccc(OCc5cccc(F)c5)c(Cl)c4)c3c2)CC1	< 100 nM
CP(C)(=O)CCNCc1ccc(-c2ccc3ncnc(Nc4ccc(OCc5cccc(F)c5)c(Cl)c4)c3c2)o1	< 100 nM
